PubChem BioAssay AID2060896 (Molecular Pharmacology Branch, DTP, NCI, 2025)

Tested on: 941728-121-R-J1-PDC complex spheroid viability
Assay: Anticancer human tumor 941728-121-R-J1-PDC patient-derived lung adenocarcinoma cell line growth inhibition [RAS]
Details: for IC50: curve of first compound; for viability, T/C: stronger effect = lower value
In short: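 Agents were tested in combination matrices in half-log decrements from a top concentration at or near clinical Cmax (10 microM if undetermined). Targets were multi-cell spheroids of tumour lines plus HUVEC and MSC stromal cells.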

[1] = second compound 0.000949 µM, first compound 0.0316 µM
[2] = second compound 0.000949 µM, first compound 0.1 µM
[3] = second compound 0.000949 µM, first compound 0.316 µM
[4] = second compound 0.000949 µM, first compound 1 µM
[5] = second compound 0.000949 µM, first compound 3.16 µM
[6] = second compound 0.000949 µM, first compound 10 µM
[7] = second compound 0.003 µM, first compound 0.0316 µM
[8] = second compound 0.003 µM, first compound 0.1 µM
[9] = second compound 0.003 µM, first compound 0.316 µM
[10] = second compound 0.003 µM, first compound 1 µM
[11] = second compound 0.003 µM, first compound 3.16 µM
[12] = second compound 0.003 µM, first compound 10 µM
[13] = second compound 0.00949 µM, first compound 0.0316 µM
[14] = second compound 0.00949 µM, first compound 0.1 µM
[15] = second compound 0.00949 µM, first compound 0.316 µM
[16] = second compound 0.00949 µM, first compound 1 µM
[17] = second compound 0.00949 µM, first compound 3.16 µM
[18] = second compound 0.00949 µM, first compound 10 µM
[19] = second compound 0.03 µM, first compound 0.0316 µM
[20] = second compound 0.03 µM, first compound 0.1 µM
[21] = second compound 0.03 µM, first compound 0.316 µM
[22] = second compound 0.03 µM, first compound 1 µM
[23] = second compound 0.03 µM, first compound 3.16 µM
[24] = second compound 0.03 µM, first compound 10 µM
[25] = second compound 0.0949 µM, first compound 0.0316 µM
[26] = second compound 0.0949 µM, first compound 0.1 µM
[27] = second compound 0.0949 µM, first compound 0.316 µM
[28] = second compound 0.0949 µM, first compound 1 µM
[29] = second compound 0.0949 µM, first compound 3.16 µM
[30] = second compound 0.0949 µM, first compound 10 µM
[31] = second compound 0.3 µM, first compound 0.0316 µM
[32] = second compound 0.3 µM, first compound 0.1 µM
[33] = second compound 0.3 µM, first compound 0.316 µM
[34] = second compound 0.3 µM, first compound 1 µM
[35] = second compound 0.3 µM, first compound 3.16 µM
[36] = second compound 0.3 µM, first compound 10 µM
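Further: spheroids exposed to compounds for 7 days before readout.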
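Wherever viability, T/C is given: 100% = DMSO vehicle control viability.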

`CC(=O)OC12COC1CC(O)C1(C)C(=O)C(O)C3=C(C)C(OC(=O)C(O)C(NC(=O)OC(C)(C)C)c4ccccc4)CC(O)(C(OC(=O)c4ccccc4)C21)C3(C)C` (stereo unspecified) + CCn1c(-c2cc(N3CCN(C)CC3)cnc2C(C)OC)c2c3cc(ccc31)-c1csc(n1)CC(NC(=O)C1CC1C)C(=O)N1CCCC(N1)C(=O)OCC(C)(C)C2 was tested, and the IC50 (second compound 0.000949 µM) was less than 31.6 nM, the IC50 (second compound 0.003 µM) was less than 31.6 nM and the IC50 (second compound 0.00949 µM) was less than 31.6 nM. For the same compound, the IC50 (second compound 0.03 µM) was less than 31.6 nM, the IC50 (second compound 0.0949 µM) was less than 31.6 nM and the IC50 (second compound 0.3 µM) was less than 31.6 nM. It also gave a viability, T/C [1] of 21.7%, a viability, T/C [2] of 21.4% and a viability, T/C [3] of 16.5%. The viability, T/C [4] was 19.6%, the viability, T/C [5] was 21.3% and the viability, T/C [6] was 16.5%. The viability, T/C [7] was 15.3%, the viability, T/C [8] was 16.9% and the viability, T/C [9] was 12.5%. The viability, T/C [10] was 13.8%, the viability, T/C [11] was 13.4% and the viability, T/C [12] was 11.2%. The viability, T/C [13] was 13.5%, the viability, T/C [14] was 9.99% and the viability, T/C [15] was 11.2%. For the same compound, the viability, T/C [16] was 9.23%, the viability, T/C [17] was 10.8% and the viability, T/C [18] was 10.2%. For the same compound, the viability, T/C [19] was 10.2%, the viability, T/C [20] was 9.9% and the viability, T/C [21] was 9.46%. It also gave a viability, T/C [22] of 9.75%, a viability, T/C [23] of 7.17% and a viability, T/C [24] of 11.4%. It also gave a viability, T/C [25] of 10.4%, a viability, T/C [26] of 11% and a viability, T/C [27] of 9.54%. For the same compound, the viability, T/C [28] was 8.5%, the viability, T/C [29] was 8.8% and the viability, T/C [30] was 9.11%. The viability, T/C [31] was 9.41%, the viability, T/C [32] was 9.25% and the viability, T/C [33] was 8.94%. The viability, T/C [34] was 9.02%, the viability, T/C [35] was 7.68% and the viability, T/C [36] was 9.8%.
In the case of `NC1c2ccccc2OC12CCN(c1cnc3c(N4CCCc5ncccc54)n[nH]c3n1)CC2` (stereo unspecified) + CCn1c(-c2cc(N3CCN(C)CC3)cnc2C(C)OC)c2c3cc(ccc31)-c1csc(n1)CC(NC(=O)C1CC1C)C(=O)N1CCCC(N1)C(=O)OCC(C)(C)C2, the IC50 (second compound 0.000949 µM) is reported as less than 31.6 nM, the IC50 (second compound 0.003 µM) is reported as less than 31.6 nM and the IC50 (second compound 0.00949 µM) is reported as less than 31.6 nM. It also gave an IC50 (second compound 0.03 µM) of less than 31.6 nM, an IC50 (second compound 0.0949 µM) of less than 31.6 nM and an IC50 (second compound 0.3 µM) of less than 31.6 nM. It also gave a viability, T/C [1] of 22%, a viability, T/C [2] of 17.4% and a viability, T/C [3] of 13.4%. For the same compound, the viability, T/C [4] was 16.5%, the viability, T/C [5] was 16.6% and the viability, T/C [6] was 12%. For the same compound, the viability, T/C [7] was 15.2%, the viability, T/C [8] was 12.4% and the viability, T/C [9] was 10.6%. It also gave a viability, T/C [10] of 14%, a viability, T/C [11] of 13.8% and a viability, T/C [12] of 10.3%. The viability, T/C [13] was 13.7%, the viability, T/C [14] was 10.5% and the viability, T/C [15] was 12.5%. The viability, T/C [16] was 10.8%, the viability, T/C [17] was 9.25% and the viability, T/C [18] was 9.84%. It also gave a viability, T/C [19] of 11.9%, a viability, T/C [20] of 12.4% and a viability, T/C [21] of 12.1%. The viability, T/C [22] was 11.1%, the viability, T/C [23] was 11.3% and the viability, T/C [24] was 15.1%. For the same compound, the viability, T/C [25] was 11.4%, the viability, T/C [26] was 13.5% and the viability, T/C [27] was 12.8%. For the same compound, the viability, T/C [28] was 12.2%, the viability, T/C [29] was 10.5% and the viability, T/C [30] was 15.2%. For the same compound, the viability, T/C [31] was 11.6%, the viability, T/C [32] was 12.1% and the viability, T/C [33] was 10.4%. It also gave a viability, T/C [34] of 10.9%, a viability, T/C [35] of 10.4% and a viability, T/C [36] of 15.5%.
`Nc1ccn(C2OC(CO)C(O)C2(F)F)c(=O)n1` (stereo unspecified) + CCn1c(-c2cc(N3CCN(C)CC3)cnc2C(C)OC)c2c3cc(ccc31)-c1csc(n1)CC(NC(=O)C1CC1C)C(=O)N1CCCC(N1)C(=O)OCC(C)(C)C2 showed an IC50 (second compound 0.000949 µM) of less than 3.16 nM, an IC50 (second compound 0.003 µM) of less than 3.16 nM and an IC50 (second compound 0.00949 µM) of less than 3.16 nM. The IC50 (second compound 0.03 µM) was less than 3.16 nM, the IC50 (second compound 0.0949 µM) was less than 3.16 nM and the IC50 (second compound 0.3 µM) was less than 3.16 nM. It also gave a viability, T/C (second compound 0.000949 µM, first compound 0.00316 µM) of 25.2%, a viability, T/C (second compound 0.000949 µM, first compound 0.01 µM) of 25.2% and a viability, T/C [1] of 16.8%. For the same compound, the viability, T/C [2] was 21.1%, the viability, T/C [3] was 21% and the viability, T/C [4] was 17.1%. For the same compound, the viability, T/C (second compound 0.003 µM, first compound 0.00316 µM) was 18.2%, the viability, T/C (second compound 0.003 µM, first compound 0.01 µM) was 16.7% and the viability, T/C [7] was 13.1%. For the same compound, the viability, T/C [8] was 15.3%, the viability, T/C [9] was 16.6% and the viability, T/C [10] was 12.2%. For the same compound, the viability, T/C (second compound 0.00949 µM, first compound 0.00316 µM) was 13.2%, the viability, T/C (second compound 0.00949 µM, first compound 0.01 µM) was 11.3% and the viability, T/C [13] was 12.9%. It also gave a viability, T/C [14] of 12.9%, a viability, T/C [15] of 12.4% and a viability, T/C [16] of 10.5%. It also gave a viability, T/C (second compound 0.03 µM, first compound 0.00316 µM) of 12.4%, a viability, T/C (second compound 0.03 µM, first compound 0.01 µM) of 11.8% and a viability, T/C [19] of 10.8%. The viability, T/C [20] was 10.7%, the viability, T/C [21] was 10.8% and the viability, T/C [22] was 10.1%. For the same compound, the viability, T/C (second compound 0.0949 µM, first compound 0.00316 µM) was 13.3%, the viability, T/C (second compound 0.0949 µM, first compound 0.01 µM) was 10.6% and the viability, T/C [25] was 12.8%. The viability, T/C [26] was 11%, the viability, T/C [27] was 9.57% and the viability, T/C [28] was 11%. For the same compound, the viability, T/C (second compound 0.3 µM, first compound 0.00316 µM) was 10.7%, the viability, T/C (second compound 0.3 µM, first compound 0.01 µM) was 10.2% and the viability, T/C [31] was 11%. It also gave a viability, T/C [32] of 10.4%, a viability, T/C [33] of 10.2% and a viability, T/C [34] of 11.7%.
